Experimental data taken from patent US9012433B2, “Substituted tetracycline compounds” (Paratek Pharmaceuticals, Inc., priority 2006, dated 2015).
≈ marks a conversion by molar mass, not a printed value. Like-named read-outs stand apart in the source and are kept apart here.

How the values were obtained:
[1] = in vitro; assay type: cell-based
Procedure: Mammalian cell cytotoxicity was assessed to evaluate potential in vivo risks associated with the tetracycline compounds of the invention. A soluble, non-toxic redox dye (“Resazurin”; Alamar Blue) was used to assess a tetracycline compound's effect on cellular metabolism. At the onset of the experiment, cultures of mammalian COS-1 or CHO cells were washed, trypsinized, and harvested. […] On the next day, serial dilutions of test drug were prepared under sterile conditions and transferred to cell plates. Plates were then incubated under the above conditions for 24 hours. Following the incubation period, the media/drug was aspirated, and 50 μL of resazurin was added. Plates were then incubated under the above conditions for 2 hours and then in the dark at room temperature for an additional 30 minutes. Fluorescence measurements were taken (excitation 535 nm, emission 590 nm) and toxic effects in treated versus control cells were compared based on the degree of fluorescence in each well.

[2] = tested on: S. pneumoniae 157E - Strep; assay: Antibacterial MIC, CLSI broth microdilution; assay type: cell-based; conditions: 35° C., 18-24 hours, lysed horse blood; for MIC: Streptococcus pneumoniae, 157ESTREP
Procedure: (§1) Grain (−) and gram (+) antibacterial minimum inhibitory concentration (MIC) values (μg/mL) were obtained using CLSI methodology for anti-bacterial susceptibility testing. On each day of testing, serial dilutions of compounds were prepared in microdilution plates using a Tecan robotic workstation. Mueller Hinton broth cultures of representative sensitive and resistant gram negative strains were grown or adjusted to match the turbidity of a 0.5 McFarland standard. 1:200 dilutions were made in an appropriate broth (cation supplemented Mueller Hinton broth) to allow a final inoculum of 1×10^5 cfu. Plates were incubated at 35° C. in ambient air for 18-24 hours, were read spectrophotometrically and checked manually for evidence of bacterial growth. The lowest dilution of compound that inhibited growth was recorded as the MIC. Lysed horse blood was used to supplement broth for testing S. pneumoniae. The MIC's for each compound were assessed against S. aureus, S. pneumoniae, P. acnes, E. coli and B. theta.

[3] = tested on: P. acnes ATCC 6919; assay: Antibacterial MIC, CLSI broth microdilution; assay type: cell-based; conditions: 35° C., 18-24 hours; for MIC: Cutibacterium acnes, ATCC6919
Procedure: as §1

[4] = tested on: B. thetaiotaomicron ATCC 29741; assay: Antibacterial MIC, CLSI broth microdilution; assay type: cell-based; conditions: for MIC: Bacteroides thetaiotaomicron
Procedure: as §1

[5] = tested on: P. acnes ATCC 11827; assay: Antibacterial MIC, CLSI broth microdilution; assay type: cell-based; conditions: 35° C., 18-24 hours; for MIC: Cutibacterium acnes, ATCC11827
Procedure: as §1

[6] = tested on: E. coli ATCC 25922; assay: Antibacterial MIC, CLSI broth microdilution; assay type: cell-based; conditions: 35° C., 18-24 hours; for MIC: Escherichia coli, ATCC25922
Procedure: as §1

[7] = tested on: E. coli MG 1655; assay: Antibacterial MIC, CLSI broth microdilution; assay type: cell-based; conditions: 35° C., 18-24 hours; for MIC: Escherichia coli, MG1655
Procedure: as §1

[8] = tested on: S. aureus RN450; assay: Antibacterial MIC, CLSI broth microdilution; assay type: cell-based; conditions: 35° C., 18-24 hours; for MIC: Staphylococcus aureus, RN450
Procedure: as §1

[9] = tested on: S. aureus RN450; assay: In vivo anti-bacterial activity, S. aureus model; conditions: mice, 24 hours; for ED50: read-out: PD50 (dose that protects 50% of the animals)
Procedure: Groups of five mice were injected intraperitoneally with a lethal dose of S. aureus RN450 in a medium of mucin. Mice were evaluated at 24 hours to determine survival. […] In some instances, a dose response study was performed with the compound such that a PD50 (a dose of compound that protects 50% of the animals) could be calculated.

[10] = ATCC29741, read-out: MIC B. thetaiotaomicron ATCC 29741
[11] = Staphylococcus aureus, sc, lethal IP S. aureus RN450, subcutaneous
[12] = ATCC29741, 35° C., 18-24 hours, read-out: MIC B. thetaiotaomicron ATCC 29741

Compound | IC50 at 24 h ([1]; African green monkey) [µg/mL] | IC50 at 24 h ([1]; Chinese hamster) [µg/mL] | MIC [2] [µg/mL] | MIC [3] [µg/mL] | MIC [4, 10] [µg/mL] | MIC [5] [µg/mL] | MIC [6] [µg/mL] | MIC [7] [µg/mL] | MIC [8] [µg/mL] | responders at 5 mg/kg ([9]; Staphylococcus aureus, sc, lethal IP S. aureus RN450, single subcutaneous dose 5 mg/kg, read-out: Percent Survival) [%] | ED50 [9, 11] [mg/kg] | MIC [4, 12] [µg/mL] | MIC S. pneumoniae 157E - Strep [2] | MIC P. acnes ATCC 6919 [3] | MIC B. thetaiotaomicron ATCC 29741 ([4]; 35° C., 18-24 hours) | MIC P. acnes ATCC 11827 [5] | MIC E. coli ATCC 25922 [6] | MIC E. coli MG 1655 [7] | MIC S. aureus RN450 [8] | PD50 (dose that protects 50% of the animals) ([9]; lethal IP S. aureus RN450, subcutaneous) [mg/kg]
CON(C)Cc1ccc(O)c2c1C[C@H]1C[C@H]3[C@H](N(C)C)C(O)=C(C(N)=O)C(=O)[C@@]3(O)C(O)=C1C2=O [P] | > 75 | > 75 | < 4 | < 4 | 4 to 8 (≈ 8.2 to 16.4 µM) | < 4 | 4 to 8 (≈ 8.2 to 16.4 µM) | 4 to 8 (≈ 8.2 to 16.4 µM) | < 4 | 100 | 0.13 |  |  |  |  |  |  |  |  | 
C=CCONCc1ccc(O)c2c1C[C@H]1C[C@H]3[C@H](N(C)C)C(O)=C(C(N)=O)C(=O)[C@@]3(O)C(O)=C1C2=O [AF] | 35 to 75 (≈ 70.1 to 150 µM) | 35 to 75 (≈ 70.1 to 150 µM) | < 4 | < 4 |  | < 4 | 4 to 8 (≈ 8.01 to 16 µM) | 4 to 8 (≈ 8.01 to 16 µM) | < 4 |  | 0.23 | < 4 |  |  |  |  |  |  |  | 
(4S,4aS,5aR,12aS)-4-Dimethylamino-3,12,12a-trihydroxy-1,11-dioxo-7-pyrazin-2-yl-1,4,4a,5,5a,6,11,12a-octahydro-naphthacene-2-carboxylic acid amide [W] |  |  |  |  |  |  |  |  |  |  |  |  | *** (Good antibacterial activity (e.g., less than about 4 μg/mL)) | *** (Good antibacterial activity (e.g., less than about 4 μg/mL)) | * (weak or no antibacterial activity (greater than about 8 μg/mL)) | *** (Good antibacterial activity (e.g., less than about 4 μg/mL)) | * (weak or no antibacterial activity (greater than about 8 μg/mL)) | * (weak or no antibacterial activity (greater than about 8 μg/mL)) | *** (Good antibacterial activity (e.g., less than about 4 μg/mL)) | 1.08
CCONCc1ccc(O)c2c1C[C@H]1C[C@H]3[C@@H](N(C)C)C(O)=C(C(N)=O)C(=O)[C@@]3(O)C(O)=C1C2=O [AM] | > 75 | > 75 | 4 to 8 (≈ 8.2 to 16.4 µM) | < 4 |  | < 4 | > 8 | > 8 | 4 to 8 (≈ 8.2 to 16.4 µM) |  |  | 4 to 8 (≈ 8.2 to 16.4 µM) |  |  |  |  |  |  |  | 
CN(C)[C@@H]1C(O)=C(C(N)=O)C(=O)[C@@]2(O)C(O)=C3C(=O)c4c(O)ccc(CNOC(C)(C)C)c4C[C@H]3C[C@@H]12 [AB] | < 35 | < 35 | < 4 | < 4 |  | < 4 | 4 to 8 (≈ 7.76 to 15.5 µM) | > 8 | < 4 |  |  | 4 to 8 (≈ 7.76 to 15.5 µM) |  |  |  |  |  |  |  | 
CCONCc1ccc2c(c1O)C(=O)C1=C(O)[C@]3(O)C(=O)C(C(N)=O)=C(O)[C@@H](N(C)C)[C@@H]3C[C@@H]1C2 [GM] | < 35 | < 35 | < 4 | < 4 |  | 4 to 8 (≈ 8.2 to 16.4 µM) | > 8 | > 8 | < 4 |  |  | 4 to 8 (≈ 8.2 to 16.4 µM) |  |  |  |  |  |  |  | 
CN(C)[C@@H]1C(O)=C(C(N)=O)C(=O)[C@@]2(O)C(O)=C3C(=O)c4c(O)ccc(-c5nccs5)c4C[C@H]3C[C@@H]12 [L] | < 35 | < 35 | < 4 | < 4 |  | < 4 | < 4 | < 4 | < 4 |  |  | < 4 |  |  |  |  |  |  |  | 
CN(C)[C@@H]1C(O)=C(C(N)=O)C(=O)[C@@]2(O)C(O)=C3C(=O)c4c(O)ccc(/C=N/NC(C)(C)C)c4C[C@H]3C[C@@H]12 [X] | < 35 | < 35 | < 4 | < 4 |  | < 4 | < 4 | < 4 | < 4 |  |  | < 4 |  |  |  |  |  |  |  | 
CN(C)[C@@H]1C(O)=C(C(N)=O)C(=O)[C@@]2(O)C(O)=C3C(=O)c4c(O)ccc(CN5CCCO5)c4C[C@H]3C[C@@H]12 [U] | > 75 | 35 to 75 (≈ 70.1 to 150 µM) | < 4 | < 4 |  | < 4 | < 4 | 4 to 8 (≈ 8.01 to 16 µM) | < 4 |  |  | 4 to 8 (≈ 8.01 to 16 µM) |  |  |  |  |  |  |  | 
CC(=O)c1cccc2c1C[C@H]1C[C@H]3[C@@H](N(C)C)C(O)=C(C(N)=O)C(=O)[C@@]3(O)C(O)=C1C2=O [D] | > 75 | > 75 | < 4 | 4 to 8 (≈ 9.08 to 18.2 µM) |  | 4 to 8 (≈ 9.08 to 18.2 µM) | > 8 | > 8 | < 4 |  |  | > 8 |  |  |  |  |  |  |  | 
CN(C)[C@H]1C(O)=C(C(N)=O)C(=O)[C@@]2(O)C(O)=C3C(=O)c4c(O)ccc(CNOCC(F)F)c4C[C@H]3C[C@@H]12 [DY] | > 75 | > 75 | 4 to 8 (≈ 7.64 to 15.3 µM) | < 4 |  | < 4 | > 8 | > 8 | < 4 |  |  | 4 to 8 (≈ 7.64 to 15.3 µM) |  |  |  |  |  |  |  | 
CCO/N=C(\C)CN(C)Cc1ccc(O)c2c1C[C@H]1C[C@H]3[C@H](N(C)C)C(O)=C(C(N)=O)C(=O)[C@@]3(O)C(O)=C1C2=O [AL, (4S,4aS,5aR,12aS)-4-Dimethylamino-7-[(2-ethoxyimino-propyl)-methyl-amino]-methyl-3,10,12,12a-tetrahydroxy-1,11-dioxo-1,4,4a,5,5a,6,11,12a-octahydro-naphthacene-2-carboxylic acid amide] | < 35 | < 35 | < 4 | < 4 |  | < 4 | 4 to 8 (≈ 7.19 to 14.4 µM) | 4 to 8 (≈ 7.19 to 14.4 µM) | < 4 |  |  | 4 to 8 (≈ 7.19 to 14.4 µM) |  |  |  |  |  |  |  | 
CON(C)Cc1ccc(O)c2c1C[C@H]1C[C@H]3[C@@H](N(C)C)C(O)=C(C(N)=O)C(=O)[C@@]3(O)C(O)=C1C2=O [Y] | > 75 | > 75 | 4 to 8 (≈ 8.2 to 16.4 µM) | < 4 | > 8 | < 4 | > 8 | > 8 | < 4 |  |  |  |  |  |  |  |  |  |  | 
CC(=O)c1cccc2c1C[C@H]1C[C@H]3[C@H](N(C)C)C(O)=C(C(N)=O)C(=O)[C@@]3(O)C(O)=C1C2=O [E] | > 75 | > 75 | < 4 | < 4 |  | < 4 | 4 to 8 (≈ 9.08 to 18.2 µM) | > 8 | < 4 |  |  | > 8 |  |  |  |  |  |  |  | 
CN(C)[C@@H]1C(O)=C(C(N)=O)C(=O)[C@@]2(O)C(O)=C3C(=O)c4c(O)ccc(CN5CCCCO5)c4C[C@H]3C[C@@H]12 [DR] | 35 to 75 (≈ 68.2 to 146 µM) | 35 to 75 (≈ 68.2 to 146 µM) | < 4 | < 4 |  | < 4 | 4 to 8 (≈ 7.79 to 15.6 µM) | > 8 | < 4 |  |  | 4 to 8 (≈ 7.79 to 15.6 µM) |  |  |  |  |  |  |  | 
CCO/N=C(\C)c1cc(CNCC(C)(C)C)c(O)c2c1C[C@H]1C[C@H]3[C@H](N(C)C)C(O)=C(C(N)=O)C(=O)[C@@]3(O)C(O)=C1C2=O [N] | > 75 | > 75 | < 4 | < 4 |  | < 4 | < 4 | 4 to 8 (≈ 6.68 to 13.4 µM) | < 4 |  |  | < 4 |  |  |  |  |  |  |  | 
CN(C)[C@@H]1C(O)=C(C(N)=O)C(=O)[C@@]2(O)C(O)=C3C(=O)c4c(O)ccc(-c5ccc[nH]5)c4C[C@H]3C[C@@H]12 [T, (4S,4aS,5aR,12aS)-4-Dimethylamino-3,10,12,12a-tetrahydroxy-1,11-dioxo-7-(1H-pyrrol-2-yl)-1,4,4a,5,5a,6,11,12a-octahydro-naphthacene-2-carboxylic acid amide] | < 35 | < 35 | < 4 | < 4 |  | < 4 | < 4 | < 4 | < 4 |  |  | 4 to 8 (≈ 8.34 to 16.7 µM) |  |  |  |  |  |  |  | 
